Where two headings read alike, the source gives them in different places.
Legend:
[1] = pH and Ka of 10-g/L aqueous solutions (pH meter); format: physicochemical; settings: 10-g/L solution in distilled, deionized water, room temperature
MRSA isolates = experiment: MIC/MBC, CLSI broth microdilution, MRSA isolates; format: cell-based, Staphylococcus aureus; settings: Staphylococcus aureus, MRSA

Compound: [Li+].[Li+].[O-]c1c(Cl)cc(Cl)cc1-c1cc(Cl)cc(Cl)c1[O-] [C59Li]
- pH of solution [1]: greater than 10
- MIC90 (MRSA isolates; 39 evaluated MRSA isolates, CLSI broth microdilution): 4 µg/mL
- MBC (MRSA isolates; pH 5.5, MRSA 0606, pH 5.5): 0.25 µg/mL
- MIC (MRSA isolates; pH 5.5, MRSA 0606, pH 5.5): 0.25 µg/mL
- MBC (MRSA isolates; pH 5.5, MRSA 0608, pH 5.5): 0.25 µg/mL
- MIC (MRSA isolates; pH 5.5, MRSA 0608, pH 5.5): 0.25 µg/mL
- MBC (MRSA isolates; pH 5.5, MRSA 0634, pH 5.5): 0.25 µg/mL
- MIC (MRSA isolates; pH 5.5, MRSA 0634, pH 5.5): 0.25 µg/mL
- MBC (MRSA isolates; pH 5.5, MRSA 0641, pH 5.5): 0.25 µg/mL
- MIC (MRSA isolates; pH 5.5, MRSA 0641, pH 5.5): 0.25 µg/mL
- MBC (MRSA isolates; pH 5.5, MRSA 0646, pH 5.5): 0.25 µg/mL
- MIC (MRSA isolates; pH 5.5, MRSA 0646, pH 5.5): 0.25 µg/mL
- MBC (MRSA isolates; pH 5.5, TCH 1516, pH 5.5): 0.25 µg/mL
- MIC (MRSA isolates; pH 5.5, TCH 1516, pH 5.5): 0.25 µg/mL
- MBC (MRSA isolates; pH 5.5, read-out: Average MBC, average of six MRSA isolates, pH 5.5): 0.25 µg/mL
- MIC (MRSA isolates; pH 5.5, read-out: Average MIC, average of six MRSA isolates, pH 5.5): 0.25 µg/mL
- MBC (MRSA isolates; pH 6.5, MRSA 0606, pH 6.5): 1 µg/mL
- MIC (MRSA isolates; pH 6.5, MRSA 0606, pH 6.5): 1 µg/mL
- MBC (MRSA isolates; pH 6.5, MRSA 0608, pH 6.5): 2 µg/mL
- MIC (MRSA isolates; pH 6.5, MRSA 0608, pH 6.5): 1 µg/mL
- MBC (MRSA isolates; pH 6.5, MRSA 0634, pH 6.5): 1 µg/mL
- MIC (MRSA isolates; pH 6.5, MRSA 0634, pH 6.5): 1 µg/mL
- MBC (MRSA isolates; pH 6.5, MRSA 0641, pH 6.5): 6 µg/mL
- MIC (MRSA isolates; pH 6.5, MRSA 0641, pH 6.5): 0.5 µg/mL
- MBC (MRSA isolates; pH 6.5, MRSA 0646, pH 6.5): 1 µg/mL
- MIC (MRSA isolates; pH 6.5, MRSA 0646, pH 6.5): 0.5 µg/mL
- MBC (MRSA isolates; pH 6.5, TCH 1516, pH 6.5): 1 µg/mL
- MIC (MRSA isolates; pH 6.5, TCH 1516, pH 6.5): 1 µg/mL
- MBC (MRSA isolates; pH 6.5, read-out: Average MBC, average of six MRSA isolates, pH 6.5): 2 µg/mL
- MIC (MRSA isolates; pH 6.5, read-out: Average MIC, average of six MRSA isolates, pH 6.5): 0.83 µg/mL
- MBC (MRSA isolates; pH 7.4, MRSA 0606, pH 7.4): 2 µg/mL
- MIC (MRSA isolates; pH 7.4, MRSA 0606, pH 7.4): 1 µg/mL
- MBC (MRSA isolates; pH 7.4, MRSA 0608, pH 7.4): 6 µg/mL
- MIC (MRSA isolates; pH 7.4, MRSA 0608, pH 7.4): 2 µg/mL
- MBC (MRSA isolates; pH 7.4, MRSA 0634, pH 7.4): 2 µg/mL
- MIC (MRSA isolates; pH 7.4, MRSA 0634, pH 7.4): 2 µg/mL
- MBC (MRSA isolates; pH 7.4, MRSA 0641, pH 7.4): 4 µg/mL
- MIC (MRSA isolates; pH 7.4, MRSA 0641, pH 7.4): 2 µg/mL
- MBC (MRSA isolates; pH 7.4, MRSA 0646, pH 7.4): 4 µg/mL
- MIC (MRSA isolates; pH 7.4, MRSA 0646, pH 7.4): 1 µg/mL
- MBC (MRSA isolates; pH 7.4, TCH 1516, pH 7.4): 2 µg/mL
- MIC (MRSA isolates; pH 7.4, TCH 1516, pH 7.4): 2 µg/mL
- MBC (MRSA isolates; pH 7.4, read-out: Average MBC, average of six MRSA isolates, pH 7.4): 3.3 µg/mL
- MIC (MRSA isolates; pH 7.4, read-out: Average MIC, average of six MRSA isolates, pH 7.4): 1.7 µg/mL
- MBC (MRSA isolates; read-out: MBC90, 39 evaluated MRSA isolates, CLSI broth microdilution): 4 µg/mL

Source: paper PMC10913730, “Antimicrobial activity of a natural compound and analogs against multi-drug-resistant Gram-positive pathogens” (Microbiology Spectrum, 2024)
